According to US20070148666A1, “Diagnosis and Treatment of Brain Cancer” (priority 2005, published 2007):

Assays:
Assay type in all cases: cell-based, human
[1] = tested on: D283 medulloblastoma cells; assay: Cell viability of D283 cells treated with TSA (MTT assay, washout experiments)
Protocol: The inventors tested cell viability of D283 medulloblastoma cells treated with increasing doses of the HDAC inhibitor TSA (FIG. 1A). They also tested cell viability was measured by an MTT assay.
The inventors also determined the minimum time of TSA exposure needed to induce cell death (FIG. 1B). D283 cells were exposed to TSA for various time points and the media replaced for an additional 24 h prior to assaying for cell viability.
To identify genes regulated by changes in histone H3 K9 acetylation status, the inventors first determined the optimal dose and timing for treating D283 medulloblastoma cells with TSA. The D283 cell line was chosen since it is widely used as a cell model of medulloblastoma and is well characterized. […] For microarray studies, the inventors treated D283 cells with 0.2 μM TSA for 9 hours. […] To confirm the microarray analysis, real-time quantitative PCR (qPCR) was performed on nine randomly selected genes (FIG. 12A).

D283 cells [2] = assay: FACS analysis of TUNEL-stained D283 cells (apoptosis); details: 12 hours, TUNEL FACS (DMSO 13%)
Protocol: FIGS. 11A-11C. Effects of TSA on D283 cells. (FIG. 11A) Dose response curves of cell viability for D283 medulloblastoma cells treated with increasing doses of the HDAC inhibitor TSA. (FIG. 11B) FACs analysis of TUNEL-stained (BD Biosciences) D283 cells treated with TSA for 12 hours. FACs dot plots of cells with DMSO (i), and cells treated with 0.02 μM and 0.2 μM TSA (ii and iii).

D283 cells [3] = assay: Whole genome expression microarray of TSA treated D283 cells; details: 0.2 μM TSA, 9 hours, q<0.001
Protocol: (§1) RNA from vehicle and TSA treated D283 cells was reverse-transcribed and hybridized to the ABI 1700 Human Genome Expression Microarray containing 33,202 gene-specific 60-mer oligonucleotide probes. Data was quantile normalized and t-test was applied to each gene for statistical significance. Differential gene expression was quantified using the Storey q-value method and data visualized using Spotfire software.
(§2) The D283 cell line was cultured with either 0.2 μM TSA or DMSO for 9 hours to generate gene expression profiles in response to TSA. Total RNA was extracted from treated cells using Trizol (Invitrogen, Carlsbad, Calif.). RNA was further purified using the RNeasy kit (QIAGEN, Valencia, Calif.) per manufacturer's protocol and purity of RNA was determined by the Agilent Bioanalyzer. 2 μg of total RNA was reverse-transcribed with the Chemiluminescent RT-IVT Labeling Kit (Applied Biosystems, Foster City, Calif.) and hybridized to a 60-mer whole genome oligonucleotide microarray (Applied Biosystems, Foster City, Calif.) containing 33,202 probes representing 29,098 genes per manufacturer's protocol. A total of three microarray hybridizations, one for each biological replicate, were performed per treatment. […] Differential gene expression was quantified using Storey q-value method (Storey and Tibshirani, 2003, Proc Natl Acad Sci USA 100, 9440-9445). […]

sFRP 1 = assay: Expression microarray, TSA fold increase of sFRP1; details: D283 medulloblastoma cells
Description: as §1
(§3) The inventors performed studies that determined that antagonists of Wnt signalling are epigenetically silenced in medulloblastoma.
as §2, with “protocol.” for “protocol. A total of three microarray hybridizations, one for each biological replicate, were performed per treatment.”

WIF 1 = assay: Expression microarray, TSA fold increase of WIF1; details: D283 medulloblastoma cells
Description: as §1, §3
as §2, with “protocol.” for “protocol. A total of three microarray hybridizations, one for each biological replicate, were performed per treatment.”

Dkk 1 = assay: Expression microarray, TSA fold increase of Dkk1; details: D283 medulloblastoma cells
Description: as §1, §3
as §2, with “protocol.” for “protocol. A total of three microarray hybridizations, one for each biological replicate, were performed per treatment.”

histone acetylation = assay: Western blot analysis of histone acetylation; details: D283 cells, 9 hours of TSA exposure
DKK1 = assay: qPCR of DKK1 expression after TSA
Protocol: The inventors identified genes by means of the microarray analysis. The results were verified by real time PCR (ABI) in D283 cells using Assay on demand gene expression reagents (ABI) for selected genes. Human Gus was used as the normalizer gene. Real-time PCR was performed on ABI PRISM 7900 HT detection system. Validated genes were assayed in normal brain and medulloblastoma patient samples.
(§4) RNA was isolated from cells and tissues with Triazol (Invitrogen, Carlsbad, Calif.). Real-time PCR was performed on the ABI PRISM 7900 HT detection system using Taq man reagents (Applied Biosystems, Foster City, Calif.) per the manufacturer's recommendations. Gene expression was determined with Assay on Demand gene expression reagents (Applied Biosystems, Foster City, Calif.). All assays were done in triplicate.

p21 = assay: qPCR of p21 mRNA after TSA; details: TSA 0.2 μM, D283, Daoy and MB 100 primary cells, n=3
Protocol: as §4

RASSF1 = assay: qPCR of RASSF1 mRNA after TSA; details: TSA 0.2 μM, D283, Daoy and MB 100 primary cells, n=3
Protocol: as §4

D283 cells [4] = assay: Colony formation assay on soft agar; details: transfected D283 cells, after 3 weeks, p<0.001
Protocol: Wnt inhibitors were cloned into pcDNA3.1, D283 cells transfected and plated on agar. Colonies selected in G418. Total number of colonies formed on agar was counted for three separate experiments (FIG. 8).
Colony formation assays were performed on soft agar. Cells were plated at 1.5×10^5 per well using 6-well plates and transfected with pcDNA3.1D/V5-His-TOPO/DKK1, pcDNA3.1D/N5-His-TOPO/lacZ or pcDNA3.1D/V5-His-TOPO with no insert (mock control) using Trans It-Neural transfection reagents (Mirus). The cells were selected in G418 (1 mg/ml) supplemented media at 24 hr post transfection. The cells were simultaneously harvested to confirm their expression at the mRNA level by real-time PCR. G418 resistant cells were maintained for two weeks in culture. Cells were re-suspended in media containing 0.3% agarose and were overlaid on 0.6% agarose. 0.5 ml media was added to the plates every four days and colony formation was quantified after fixation and staining with methylene blue after 3 weeks.

Row | Compound | cell viability ([1]; 0.1 μM TSA, 24 h, MTT assay) [%] | cells committed to cell death by 24 hours ([1]; 0.2 μM TSA for 9 hours, washout) [%] | cell viability ([1]; 0.2 μM TSA, 9 hours) [%] | cell viability ([1]; 0.2 μm TSA, 24 h, MTT assay) [%] | surviving cells ([1]; TSA exposure between 6 and 9 h, media replaced for additional 24 h) [%] | apoptotic cells (D283 cells [2]; 0.02 μM TSA) [%] | apoptotic cells (D283 cells [2]; 0.2 μM TSA) [%] | number of genes induced at least 2-fold (D283 cells [3]) | TSA fold increase of sFRP1 (sFRP 1) [fold] | TSA fold increase of WIF1 (WIF 1) [fold] | TSA fold increase of Dkk1 (Dkk 1) [fold] | histone acetylation (histone acetylation) | DKK1 expression (DKK1; D283 cells, TSA 0.2 μm, qPCR) | DKK1 expression (DKK1; MB47, MB100, MB187 primary cells and D283, RT-PCR) | p21 mRNA (p21) | RASSF1 mRNA (RASSF1) | fewer neo-resistant colonies than controls (D283 cells [4]) [%]
1 | CC(/C=C/C(=O)NO)=C\[C@@H](C)C(=O)c1ccc(N(C)C)cc1 [TSA, Trichostatin A] | 50 | 85 | 100 | 30 | 80 | 31 | 79 | 714 | 2.9 | 2.5 | 1.4 | robust histone acetylation | potently induces DKK1 expression | increased on TSA treatment | induction | induction | 
2 | DKK1 |  |  |  |  |  |  |  |  |  |  |  |  |  |  |  |  | 60
